Results taken from patent US11541065B2, “Compositions and methods for treating brain injury” (UNM RAINFOREST INNOVATIONS, priority 2018, dated 2023).

Tests used:
[1] = system: cPLA2; assay: cPLA2 activity in WT and GluN2A-KO mouse neuronal lysates; type: cell-based, mice; details: L-homocysteine 50 μM, four hours
Description: Neuron cultures were treated with or without L-homocysteine in the presence or absence of pharmacological inhibitors for the time period specified in each experiment. The medium was collected from each experimental plate and centrifuged at 1000 rpm for five minutes to remove cellular debris. Equal amounts (100 μl) of the supernatant from each sample were used to determine the amount of PGE2 using the PGE2 enzyme immunoassay kit according to the manufacturer's instructions. For measurement of cPLA2 activity, the neuronal cells from the above treated conditions were harvested in ice-cold Tris-buffered saline (pH7.4) containing sodium pyrophosphate as phosphatase inhibitor, sonicated three times with five-second bursts and two minutes on ice between intervals. The lysed cell suspensions were centrifuged at 10,000 rpm for 10 minutes and the supernatant removed. Equal amounts of protein from the supernatant (assessed using BCA protein estimation kit) were estimated for activity of cPLA2 using cPLA2 activity assay kit according to the manufacturer's protocol.
For measurement of cPLA2 activity and MCP-1 levels in cell lysates, neuronal lysates were prepared by harvesting neurons in ice-cold Tris-buffered saline (pH 7.4) containing phosphatase inhibitor, sonicated three times in five-second bursts and placed on ice (two minutes) between each burst of sonication. […]

[2] = system: neuron cultures from WT and GluN2A-KO mice; assay: Neuronal cell death by Hoechst DNA staining, WT and GluN2A-KO mouse neuron cultures; type: cell-based; details: for neuronal death: homocysteine 50 μM, 18 hours; for cell death: L-homocysteine 50 μM, 24 hours
Description: Neurons were subjected to staining with Hoechst 33342 dye for 15 minutes, washed extensively with PBS, and analyzed using fluorescent microscopy to assess nuclear damage. Imaging was performed with a Zeiss Axiovert 200M fluorescence microscope with attached AxioCam CCD camera using 20× objective lens (Carl Zeiss, Thomwood, N.Y.). To quantitatively assess the percentage of pyknotic nuclei a total of 1000 cells were counted for each set of experiments. Mean±SEM (n=3) were used for statistical comparison using ANOVA (Bonferroni's multiple comparison test). Differences were considered significant when p<0.05.
[…] Glutamate treated cells were then maintained in their original medium for another 17 hours. For some experiments, neurons were treated with L-homocysteine or glutamate in the presence of NVP-AAM077 or PD98059. The neurons were then fixed and stained with Hoechst 33342 dye as previously described (Poddar and Paul, 2009, J Neurochem 110:1095-1106). Percentage of pyknotic nuclei was quantitatively assessed by fluorescent microscopy to determine the extent of neuronal death.

[3] = Total plasma homocysteine after osmotic pump implantation, rats (HPLC); type: in vivo; details: male, Wistar, rat, sc, 200 mM solution (2 ml osmotic pump, flow rate 10 μl/hr), subcutaneous osmotic pump with 200 mM L-homocysteine
Description: L-homocysteine (200 mM) was freshly prepared by alkali hydrolysis of L-homocysteine thiolactone hydrochloride followed by neutralization, and maintained in 0.02 mM of N-Tris(hydroxymethyl)methyl-2-aminoethanesulfonic acid buffer pH 7.4 as previously described (Poddar et al., 2001, Circulation, 103:2717-2723). Osmotic pumps (Alzet, 2ML1, flow rate 10 μl/hr; Durect Corp., Cupertino, Calif.) containing either 2 ml of freshly prepared 200 mM L-homocysteine (for hyperhomocysteinemia) or normal saline (for control) were surgically implanted subcutaneously on the back and posterior to the scapulae of male Wistar rats under anesthesia (2% isoflurane in medical grade oxygen). The incision was closed after implantation and the rats were allowed to recover in their cage. For both WT and GluN2A-KO mice, osmotic pumps (Alzet, 2001, flow rate 1 μl/hr; Durect Corp., Cupertino, Calif.) containing either 200 μl of freshly prepared 200 mM L-homocysteine (for hyperhomocysteinemia) or normal saline (for control) were implanted similarly.
Blood was obtained from rats (retro-orbital) and mice (cardiac puncture) under anesthesia with 2% isoflurane in medical grade oxygen, before installation of osmotic pumps (0 day) and at various time points after installation of osmotic pumps (rats: day 3, day 5, and day 7; mice: day 3 and day 5). Blood was collected in standardized VACUTAINER venous blood collection EDTA-tubes (ThermoFisher Scientific, Inc., Waltham, Mass.) and centrifuged at 3,500 rpm for 15 minutes. The plasma obtained was analyzed for total plasma homocysteine levels using high performance liquid chromatography with post-column fluorescence detection as previously described (Gilfix et al., 1997, Clin Chem 43:687-688; Jacobsen et al., 1994, Clin Chem 40:873-881; Miller et al., 2013, Am J Clin Nutr 97:827-834).

[4] = system: rat cortical neuron cultures; assay: OGD / re-oxygenation cell death, Hoechst DNA staining; type: cell-based; details: OGD two hours in the presence of homocysteine 50 μM, re-oxygenation 22 hours, vs OGD alone
Description: At specified time periods (one hour, two hours, and three hours) during OGD alone or OGD in the presence of L-Hcy (50 μM), cells were removed from the chamber and lysed for immunoblot analysis. Some cultures were treated with L-Hcy (three hours) during the OGD insult in the presence or absence of NVP-AAM077 (30 nM; 3 h). […] Cells were then subjected to staining with Hoechst 33342 dye for 15 minutes, washed extensively with PBS, and analyzed using fluorescent microscopy to assess nuclear damage. To quantitatively assess the percentage of pyknotic nuclei, a total of 1000 cells were counted for each set of experiments (Poddar et al., 2010, J Neurochem 115, 1350-1362).

N[C@@H](CCS)C(=O)O [L-homocysteine]
cPLA2 activity ([1]; neurons from GluN2A-KO mice): cPLA2 activity remain unchanged | cPLA2 activity ([1]; neurons from WT mice): cPLA2 activity increase significantly | neuronal death ([2]; cultures from GluN2A KO mice): fails to induce neurotoxicity | neuronal death ([2]; cultures from WT mice): significantly increases neuronal death | cell death ([2]; neurons from GluN2A-NMDAR knockout mice): fails to alter cell death | cell death ([2]; neurons from WT mice): significant increase in cell death | concentration at 3 day ([3]; day 3, basal 8.8±0.76 μM, read-out: total plasma homocysteine level): 23.2 ± 0.52 µM | concentration at 5 day ([3]; day 5, read-out: total plasma homocysteine level): 23.6 ± 0.57 µM | concentration at 7 day ([3]; day 7, read-out: total plasma homocysteine level): 20.5 ± 0.88 µM | OGD-induced cell death [4]: increases by two-fold
